From paper PMC9602792, “Preclinical evaluation of the epithelial sodium channel inhibitor AZD5634 and implications on human translation” (American Journal of Physiology - Lung Cellular and …, 2022)

Target: T1, ENaC (Homo sapiens, UniProt P37088+P51168+P51170)
T1 construct: host or cells: primary normal human bronchial epithelial cells, ALI culture
T1 sequence (P37088 1-669): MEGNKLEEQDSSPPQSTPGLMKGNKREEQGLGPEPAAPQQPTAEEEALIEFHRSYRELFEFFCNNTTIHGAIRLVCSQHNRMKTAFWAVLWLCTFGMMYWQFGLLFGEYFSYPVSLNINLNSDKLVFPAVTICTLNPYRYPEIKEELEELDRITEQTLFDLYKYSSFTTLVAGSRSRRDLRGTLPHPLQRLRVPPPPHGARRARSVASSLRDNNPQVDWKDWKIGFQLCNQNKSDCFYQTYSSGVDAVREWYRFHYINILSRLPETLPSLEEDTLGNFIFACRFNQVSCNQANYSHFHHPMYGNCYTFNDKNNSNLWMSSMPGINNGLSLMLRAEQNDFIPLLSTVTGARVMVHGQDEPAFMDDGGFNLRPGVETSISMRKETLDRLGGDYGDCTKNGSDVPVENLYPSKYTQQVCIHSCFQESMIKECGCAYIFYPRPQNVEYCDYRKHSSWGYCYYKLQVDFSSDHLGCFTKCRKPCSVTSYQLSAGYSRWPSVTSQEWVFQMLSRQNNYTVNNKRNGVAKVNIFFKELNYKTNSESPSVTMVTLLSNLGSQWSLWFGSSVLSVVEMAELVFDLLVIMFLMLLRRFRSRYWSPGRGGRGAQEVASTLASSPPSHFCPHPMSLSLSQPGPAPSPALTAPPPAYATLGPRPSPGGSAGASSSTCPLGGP
T1 sequence (P51168 1-640): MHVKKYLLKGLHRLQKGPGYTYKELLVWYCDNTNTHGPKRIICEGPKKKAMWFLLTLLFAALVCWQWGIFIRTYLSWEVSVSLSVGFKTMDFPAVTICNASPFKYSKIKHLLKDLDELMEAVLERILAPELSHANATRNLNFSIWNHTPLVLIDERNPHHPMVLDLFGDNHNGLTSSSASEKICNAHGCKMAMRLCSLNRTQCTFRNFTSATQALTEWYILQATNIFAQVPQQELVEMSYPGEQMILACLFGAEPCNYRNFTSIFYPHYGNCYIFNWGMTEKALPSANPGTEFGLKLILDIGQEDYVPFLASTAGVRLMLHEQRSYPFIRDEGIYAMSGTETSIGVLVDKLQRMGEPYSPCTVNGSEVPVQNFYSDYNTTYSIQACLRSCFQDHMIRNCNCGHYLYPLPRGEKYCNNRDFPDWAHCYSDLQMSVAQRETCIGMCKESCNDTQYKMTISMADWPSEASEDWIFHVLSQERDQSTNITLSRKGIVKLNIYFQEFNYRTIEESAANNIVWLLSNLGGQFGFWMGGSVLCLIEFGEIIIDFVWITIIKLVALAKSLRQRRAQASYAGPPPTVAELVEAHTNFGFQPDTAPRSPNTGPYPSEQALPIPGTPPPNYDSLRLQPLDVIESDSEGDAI
T1 sequence (P51170 1-649): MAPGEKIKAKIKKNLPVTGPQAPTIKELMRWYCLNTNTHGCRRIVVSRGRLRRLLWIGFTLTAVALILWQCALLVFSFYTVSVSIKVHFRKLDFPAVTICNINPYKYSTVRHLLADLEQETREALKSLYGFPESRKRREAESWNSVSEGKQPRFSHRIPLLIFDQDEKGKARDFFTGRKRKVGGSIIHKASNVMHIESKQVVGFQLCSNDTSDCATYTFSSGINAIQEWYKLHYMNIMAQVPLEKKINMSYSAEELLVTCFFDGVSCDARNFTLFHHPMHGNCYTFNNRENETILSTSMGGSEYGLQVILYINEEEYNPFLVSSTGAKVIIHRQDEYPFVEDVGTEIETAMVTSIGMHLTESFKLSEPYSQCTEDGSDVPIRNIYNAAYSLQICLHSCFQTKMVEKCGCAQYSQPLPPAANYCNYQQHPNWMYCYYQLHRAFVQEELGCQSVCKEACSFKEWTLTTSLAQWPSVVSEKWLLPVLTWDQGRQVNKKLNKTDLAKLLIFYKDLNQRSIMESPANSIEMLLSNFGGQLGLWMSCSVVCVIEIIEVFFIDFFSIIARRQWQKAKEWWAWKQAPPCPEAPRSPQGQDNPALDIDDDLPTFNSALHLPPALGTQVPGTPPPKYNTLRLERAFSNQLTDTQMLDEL
Experiment: Ussing chamber Isc in F508del-homozygous CF HBEC cultures
Format: cell-based
Method: Using previously described techniques ([2], [37]), epithelial cells were harvested from excised lung tissue derived from CF donors homozygous for F508del CFTR, expanded, and grown until confluency was attained. […] To stimulate fresh mucus secretion and formation of an even ASL layer, the cells were washed 48–72 h before experimentation with PneumaCult ALI media (80 µL), added apically, and then aspirated following 30–45 min incubation at 37°C. The washing process was repeated with a 15-min incubation period and the mucus layer was allowed to reestablish, after which the cells were treated with 1 µL of AZD5634 (1 µM, apical), alone and in combination with lumacaftor and ivacaftor (luma/iva; 3 µM/10 µM, basolateral). PBS (1% DMSO, apical) served as a vehicle control. […] Only passage 1 and 2 monolayers were used for these studies.
CFTR-dependent ion transport electrophysiology was measured in HBEC cultures by Isc using modified P2300 Ussing chambers (Physiologic Instruments, San Diego, CA) as previously described ([37], [38]). […] All chambers were maintained at 37°C and agonist stimulation was initiated within 15 min of placement in the chambers.
Descriptive statistics were calculated and means compared using unpaired or paired t tests, or ANOVA, with post hoc analyses conducted for multiple comparisons where appropriate. For analyses of functional anatomy of en bloc trachea, a mixed linear model was used that corrected for within-animal correlation. All tests were two-sided and were computed using GraphPad Prism (GraphPad Software, Inc., La Jolla, CA). P-values <0.05 were considered significant. Statistics are reported as means ± SE, unless indicated otherwise.

Compound: NC(=NCc1ccccc1)NC(=O)c1nc(Cl)c(N)nc1N [benzamil, reference compound]
- incremental Isc change (at 100 nM): −2.7 ± 1.5
- cumulative ΔIsc (at the maximum concentration (10,000 nM)): −12.1 ± 3.5
